These results are taken from patent US6911330B1, “Recombinant secoisolariciciresinol dehydrogensase, and methods of use” (Washington State University Research Foundation, priority 1998, dated 2005).

Data set [1] addresses T1, pinoresinol/lariciresinol reductase (Forsythia intermedia, UniProt P93143).
T1 construct: host or cells: E. coli, pSBETa vector
T1 sequence (P93143 1-312): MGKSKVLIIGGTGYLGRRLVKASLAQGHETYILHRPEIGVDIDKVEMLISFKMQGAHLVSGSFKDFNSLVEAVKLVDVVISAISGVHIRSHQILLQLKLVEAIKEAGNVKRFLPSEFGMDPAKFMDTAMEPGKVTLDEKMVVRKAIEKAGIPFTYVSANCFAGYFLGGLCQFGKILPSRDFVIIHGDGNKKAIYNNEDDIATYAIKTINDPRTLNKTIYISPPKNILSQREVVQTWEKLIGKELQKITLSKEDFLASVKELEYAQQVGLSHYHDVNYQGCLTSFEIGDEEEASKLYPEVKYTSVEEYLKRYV
The following applies: incubation with (±)-pinoresinols in presence of NADPH; cited from earlier work.

The target in data set [2] is HIV reverse transcriptase (Human immunodeficiency virus type 1 group M subtype B, UniProt P04585). The following applies: cited from earlier work.
In data set [3] the test system is HIV-1. The conditions noted are these: cited from earlier work.
Data set [4] relates to cAMP-phosphodiesterase. The following applies: cited from earlier work.
For data set [5], the target named is T2, secoisolariciresinol dehydrogenase (Forsythia intermedia, UniProt Q94KL7, F122L/G175A/I11F).
T2 construct: The dehydrogenase coding region was also excised using the Nde I sites at the 5′ and 3′ ends and cloned into the SBET vector; made in house; host or cells: E. coli B834(DE3), SBET vector
In words: Dehydrogenase activity of recombinant enzyme expressed in E. coli. It counts as biochemical. The following applies: crude supernate of E. coli expressing DEHY133. As to the method:
(§1) Secoisolarciresinol dehydrogenase activity was assayed by monitoring the formation of (−)-[9′-^3H2]matairesinol. Each assay consisted of NAD (50 mM in 0.1 M potassium phosphate buffer, pH 7, 5 μl), (±)-[9,9′-^3H2]secoisolariciresinols (28 nM, 130 MBq/mmol in ethanol, 5 μl) and buffer (50 mM Tris-HCl, pH 8.8, 470 μl ). The enzymatic reaction was initiated by addition of the enzyme preparation (20 μl). After 1 h incubation at 30° C. with shaking, the mixture was extracted with EtOAc (500 μl ×2) containing unlabelled (±)-matairesinols (200 μg) as radiochemical carriers. After centrifugation (13,800×g, 5 min) the EtOAc solubles were removed, evaporated to dryness in vacuo, reconstituted in MeOH:3% acetic acid in H2O (1:1, 200 μl), and an aliquot (20 μl) subjected to reversed-phase column chromatography. The elution conditions were as follows: linear gradient acetonitrile/3% acetic acid in H2O from 10:90 to 30:70 between 0 and 35 min; then to 5:95 in 5 min and finally isocratic at 5:95 for 5 min, at a flow rate of 1 ml min^−1, and detection at 280 nm. Fractions corresponding to matairesinol were individually collected, aliquots removed for liquid scintillation counting, and the remainder freeze-dried.
(§2) [9′-^3H2]Matairesinol (0.5 kBq), collected after reversed-phase column chromatography, was reduced with LiAlH4 to give [9′-^3H2]secoisolariciresinol (0.26 kBq).
(§3) The E. coli culture containing the dehydrogenase clone was grown at 37° C. in 25 ml of SOC Kn50 medium to an O.D. of 0.5. To this was added IPTG to give a final concentration of 0.5 mM and the culture was grown at 18° C. for an additional 20 h. The cells were pelleted at 600×g 4° C. 12 min, resuspended in 5 ml of 20 mM Tris-HCl pH 8.0, 5 mM DTT buffer and repelleted. The final bacterial pellet was resuspended in 200 μL of the above buffer and sonicated 4×15 sec using a Braun-Sonic 2000 sonicator set at maximal output of −0.64. The sample was then centrifuged 20,800 ×g 4° C. 15 min and the crude supernate was assayed for dehydrogenase activity. […] The clone SMDEHY631 (SEQ ID NO:9) was also expressed in E. coli in the foregoing manner.

The target in data set [6] is T3, secoisolariciresinol dehydrogenase (Forsythia intermedia, UniProt Q94KL7).
T3 construct: The dehydrogenase coding region was also excised using the Nde I sites at the 5′ and 3′ ends and cloned into the SBET vector; made in house; host or cells: E. coli B834(DE3), SBET vector
The description is as above. Type of data set: biochemical. The following applies: protein produced in E. coli. As to the method:
as §1, §2, §3

Take `COc1cc(C2OCC3C(c4ccc(O)c(OC)c4)OCC23)ccc1O` (single isomer, unassigned; (+)) [(+)-pinoresinol]: the “served as substrate of recombinant pinoresinol/lariciresinol reductase” value in data set [1] is “served as substrates”.
Consider `CC(Cc1ccc(O)c(O)c1)C(C)Cc1ccc(O)c(O)c1` (stereo not shown) [nordihydroguaiaretic acid], for which the “effectiveness against HIV due to reverse transcriptase inhibitory activity” value in data set [2] is listed as “effective against HIV”.
For the molecule (−)-pinoresinol, the “served as substrate of recombinant pinoresinol/lariciresinol reductase” value in data set [1] is “not”.
Regarding (−)-trachelogenin, the “inhibition of in vitro replication of HIV-1” value in data set [3] is recorded as “inhibits”. For the same molecule, the “effectiveness against HIV due to reverse transcriptase inhibitory activity” value in data set [2] was “effective against HIV”.
Consider `COc1cc(C[C@H]2COC(=O)[C@@H]2Cc2ccc(O)c(OC)c2)ccc1O` [matairesinol], for which the “inhibition of cAMP-phosphodiesterase” value in data set [4] is “inhibit”.
Regarding “(+)-secoisolariciresinol [(+)-antipode of secoisolariciresinol]”, the “conversion as substrate into (−)-lactol and (−)-matairesinol” value in data set [5] is reported as “did not serve as a substrate”.
For `COc1cc(C[C@H]2CO[C@H](c3ccc(O)c(OC)c3)[C@H]2CO)ccc1O` [(+)-lariciresinol], the “served as substrate of recombinant pinoresinol/lariciresinol reductase” value in data set [1] was “served as substrates”.
For the molecule (−)-secoisolariciresinol, the “conversion as substrate into (−)-lactol and (−)-matairesinol” value in data set [5] is “catalyzed the conversion”.
For `COc1cc(C[C@H]2C(=O)OC[C@@H]2Cc2ccc(OC)c(OC)c2)ccc1O` [(−)-arctigenin], in data set [2], the “effectiveness against HIV due to reverse transcriptase inhibitory activity” value was “effective against HIV”.

B1: SMDEHY631: protein (SEQ ID NO:10) encoded by cDNA clone SEQ ID NO:9 (protein)
chain: MATSQLRTAFARRLEGKVALITGGASGVGEVTAKLFSQHGAKVAIADVQDELGHSVVEAIGLSNSTYIHCDVTNEDGVKNAVDNTVSTYGKLDIMFNNAGISDPYKPRVIDNEKADFERVLSVNVTGVFLFMKHAARIMVPARSGCIISTASLSSTMGGGSSHAYCGSKHAVLGLTRNLAVELGQFGIRVNCLSPFGLPTPLAKKFTGIENDEDLANGIERAGNLKGTKLRIEDVANAALFLASDEAQYVSGQNLFIDGGFSVCNSAIKLFQYPDS
modifications: Forsythia x intermedia
In the case of B1, the “catalysis of conversion of (−)-secoisolariciresinol into (−)-matairesinol by protein of the clone” value (from here on “catalysis”) in data set [6] is listed as “catalyzed the stereochemical conversion”.

B2: SMDEHY133: protein (SEQ ID NO:2) encoded by engineered cDNA clone DEHY133 (SEQ ID NO:1) (protein)
chain: MQLRTAFARRLEGKVALITGGASGIGETTAKLFSQHGAKVAIADVQDELGHSVVEAIGTSNSTYIHCDVTNEDGVKNAVDNTVSTYGKLDIMFSNAGISDPNRPRIIDNEKADFERVLSVNVTGVFLCMKHAARVMIPARSGNIISTASLSSTMGGGSSHAYCGSKHAVLALTRNLAVELGQFGIRVNCLSPFGLPTALGKKFSGIKNEEEFENVINFAGNLKGPKFNVEDVANAALYLASDEAKYVSGHNLFIDGGFSVCNSVIKVFQYPDS
modifications: Forsythia x intermedia
B2: in data set [6], the “catalysis” value is “catalyzed the stereochemical conversion”.

B3: SMDEHY321: protein (SEQ ID NO:4) encoded by cDNA clone SEQ ID NO:3 (protein)
chain: MAATSQVLTAIARRLEGKVALITGGASGIGETTAKLFSQHGAKVAIADVQDELGHSVVEAIGTSNSTYIHCDVTNEDGVKNAVDNTVSTYGKLDIMFSNAGISDPNRPRIIDNEKADFERVFSVNVTGVFLCMKHAARVMIPARSGNIISTASLSSTMGGGSSHAYCGSKHAVLGLTRNLAVELGQFGIRVNCLSPFGLPTALGKKFSGIKNEEEFENVINFAGNLKGPKFNVEDVANAALYLASDEAKYVSGHNLFIDGGFSVCNSVIKVFQYPDS
modifications: Forsythia x intermedia
Take B3: in data set [6], the “catalysis” value is given as “catalyzed the stereochemical conversion”.
